Laboratory results: US20200236933A1, “USE OF A NON-IONIC SURFACTANT WHICH IS A POLYOL DERIVATIVE AS A PLANT GROWTH STIMULATING AGENT OR AS AN ADJUVANT” (priority 2017, published 2020)

How the values were obtained:
[1] = test system: flat-leaf parsley variety NOVAS; assay: Vertical anchoring of the root, assays in fields; format: in vivo; conditions: seeds immersed 1 h in 2.5% solution; 12 weeks after sowing
Method: In order to test the effect of the invention in conditions of crops in the field, the flat-leaf parsley variety NOVAS is used.
(§1) The seeds are next dried in a heating tunnel at 45° C. for 1 h.
The seeds are mechanically sown (seeder) on strips of four rows each one beside the other to limit as much as possible the variations in soil quality, insulation and temperature.
12 weeks after sowing, 25 parsley plants were harvested in order to observe root morphology.

[2] = test system: rape leaf; assay: Penetration of a colored aqueous solution through the cuticle; conditions: 2.5% solution, 2 h on rape leaf then wiped
Method: Rape, a plant known for having a thick cuticle, was chosen in order to test the effectiveness of the invention as a penetrating agent.
A colorant in aqueous solution was deposited on a rape leaf, then left for 2 h and then wiped.

[3] = Homogenization of the mixture; format: physicochemical; conditions: 1% with 2% glycerin colored blue
Excerpt: The mixtures were next stirred in equivalent manner. Photographs are taken after stirring.

[4] = test system: soybeans; assay: Germination of soybeans after immersion treatment; format: in vivo; conditions: soybeans immersed 1 h in 0.75% solution
Method: The beans are next dried in a heating tunnel at 45° C. for one hour. Four batch repetitions of 15 beans are deposited on Petri dishes containing a medium composed of 2% Agar Agar and 98% water.
The Petri dishes are kept at ambient temperature and in darkness. Each day the number of germinated beans (having a radicle) is counted.

[5] = test system: Aspergillus niger; assay: Fungicide effect by antibiogram type method; format: cell-based
Excerpt: In order to evaluate any impact of the sugar esters used according to the invention on microorganisms, the fungicide effect was searched for by an antibiogram type method. The method consists of: • spreading a solution contaminated with the mold Aspergillus niger on the surface of a Petri dish containing glucose gel growth medium with chloramphenicol. • arrange 4 sterile antibiogram disks of 6 mm diameter per Petri dish. • inoculate with 3 drops (0.071 g) of solution to test or control solution per disk. The dishes are next placed in the incubator at 25° C. for 5 days. Measurement of the inhibitory diameter is carried out every day.

[6] = test system: flat-leaf parsley variety NOVAS; assay: Root growth, assays in fields; format: in vivo, Petroselinum crispum var. neapolitanum; conditions: seeds immersed 1 h in 2.5% solution; 12 weeks after sowing
Method: In order to test the effect of the invention in conditions of crops in fields, the flat-leaf parsley variety NOVAS (Petroselinum crispum var. neapolitanum) is used.
as §1
The seeds are mechanically sown (seeder) on strips of four rows each one beside the other to limit as much as possible the variations in soil quality, insulation and temperature. 12 weeks after sowing, 25 parsley plants were taken in order to measure several parameters of the roots: their weight, their length, and their diameter.

[7] = test system: detached leaves of Buddleja davidii; assay: Persistence of the mixture at the foliar surface; conditions: 1% with 0.1% colorant; rinses with water
Method: The effect of the invention on the persistence of the mixture was evaluated after spraying a solution colored blue on detached leaves of Buddleja davidii.
After spraying, the leaves are left at ambient temperature until the sprayed solution has evaporated.
Next, several operations of rinsing the leaves with water are carried out. The rinse water is collected after each rinse and photographs are taken to observe and compare the coloration of the rinse waters. An absorbance measurement at 630 nm is also carried out by spectrophotometry.

[8] = test system: detached leaves of Buddleja davidii; assay: Stickiness of a solution on the leaf (washing off); conditions: 2.5% with 3% titanium dioxide; washed with 14 g water
Excerpt: A solution is applied by spraying on detached leaves of Buddleja davidii disposed flat on a support.
The leaves were next left at ambient temperature until the sprayed solutions had completely evaporated.
14 grams of water are next sprayed onto the leaves held vertical to simulate rain. The titanium residues on the leaf are next observed.

[9] = test system: maize seeds; assay: Root growth (rootlets) of maize seeds; format: in vivo; conditions: maize seeds immersed 1 h in 2.5% solution; after two days
Method: (§2) The seeds are next dried in a heating tunnel at 45° C. for one hour. Four batch repetitions of 16 seeds are deposited on Petri dishes containing a medium composed of 2% Agar Agar and 98% water.
The Petri dishes are kept at ambient temperature and in darkness.

[10] = pH modification of the mixture; format: physicochemical; conditions: increasing concentration of the 2.5% sucrose stearate solution added to a solution at pH 9.4
[11] = test system: strawberry leaves; assay: Spreading of an aqueous solution on a leaf; format: in vivo; conditions: 0.75% solution sprayed on strawberry leaves
Method: Strawberry plants in pots are grown in a climate-controlled chamber in the following conditions: 23° C. and a photoperiod of 16 h/8 h.

[12] = test system: parsley leaves; assay: Calcium content of the leaves; format: in vivo; conditions: 3% solution, watering every three days and spraying twice daily, seven days
Excerpt: After seven days of treatment, the leaves are harvested and analyzed to determine their calcium content.

[13] = test system: maize seeds; assay: Germination of maize seeds after immersion treatment (Example 2); format: in vivo; conditions: maize seeds immersed 1 h in 0.75% solution
Method: as §2
The Petri dishes are kept at ambient temperature and in darkness. Each day the number of seeds that have germinated (having a radicle) is counted.

[14] = test system: Septoria leaf spot; assay: Reduction of phytosanitary products on wheat; format: in vivo, soft winter wheat (GARCIA variety); conditions: 25% of recommended dose (0.15 L/ha Priaxor + 0.15 L/ha Reimer Pro) plus 3 L/ha sucrose stearate; start of coming into ear
Method: Assays in a climate-controlled chamber were carried out on soft winter wheat (GARCIA variety, Arvalis). The wheat was sowed in containers of 1 meter by 1 meter. […] Priaxor® comprises two active ingredients: fluxapyroxad (belonging to the SDHI family) and pyraclostrobin (belonging to the strobilurin family) and Reimer® Pro comprises the active ingredient metconazole (belonging to the triazole family).
The containers were then taken out of the climate-controlled chamber and disposed near a field having more than 50% of wheat plants diseased with Septoria leaf spot. After 1 day, the containers were placed back in the climate-controlled chamber under controlled conditions.

[15] = Formation of foam on preparing the mixture; format: physicochemical; conditions: 1% with 1% Cocamidopropyl betaine
Method: The two solutions were next stirred in equivalent manner, the photographs being taken before, immediately after stirring and 1 h after stirring.

## sucrose stearate
[1]
  root morphology: root elongation, coupled with vertical anchorage of the roots
[2]
  penetration of the colorant through the cuticle: enables the colorant to color the leaf and thus to penetrate through the cuticle
[3]
  homogenization of the mixture: better homogenization of the mixture
[4]
  increase of the germination kinetics on average: 25%
[4]; after 1 day
  germinated seeds, treated batch compared with the control batch: 4 times
[5]; 0.1% solution, D1
  Inhibitory diameter: 0 mm
[5]; 0.1% solution, D2
  Inhibitory diameter: 0 mm
[5]; 0.1% solution, D3
  Inhibitory diameter: 0 mm
[5]; 0.1% solution, D4
  Inhibitory diameter: 0 mm
[5]; 0.1% solution, D5
  Inhibitory diameter: 0 mm
[5]; 1% solution, D1
  Inhibitory diameter: 0 mm
[5]; 1% solution, D2
  Inhibitory diameter: 0 mm
[5]; 1% solution, D3
  Inhibitory diameter: 0 mm
[5]; 1% solution, D4
  Inhibitory diameter: 0 mm
[5]; 1% solution, D5
  Inhibitory diameter: 0 mm
[5]; 3% solution, D1
  Inhibitory diameter: 0 mm
[5]; 3% solution, D2
  Inhibitory diameter: 0 mm
[5]; 3% solution, D3
  Inhibitory diameter: 0 mm
[5]; 3% solution, D4
  Inhibitory diameter: 0 mm
[5]; 3% solution, D5
  Inhibitory diameter: 0 mm
[5]; 10% solution, D1
  Inhibitory diameter: 0 mm
[5]; 10% solution, D2
  Inhibitory diameter: 0 mm
[5]; 10% solution, D3
  Inhibitory diameter: 0 mm
[5]; 10% solution, D4
  Inhibitory diameter: 0 mm
[5]; 10% solution, D5
  Inhibitory diameter: 0 mm
[5]; whatever the concentrations tested (0.1-10%)
  fungicide effect: no fungicide effect
[6]
  diameter of the taproot, on average greater than the control: 30%
  roots with a length of more than 10 cm: 74%
  weight of the taproot, on average greater than the control: 70%
[7]
  persistence of the mixture on rinsing: still present even after the 4th rinse
[8]
  titanium dioxide residue on the leaf after washing: still clearly visible
[9]
  rootlets on the germinated seeds: rootlet presence is observed
[10]
  pH at which the mixture stabilizes: 5.25
[11]
  distribution of the solution on the leaf (spreading of the drops): distributed evenly over the leaf
  passage of the solution onto the lower face compared with the control batch: much greater passage of the solution onto the lower face
[12]
  reduction in the level of calcium in the leaves: 17%
[13]
  increase of the germination kinetics on average: 30%
[13]; after 2 days
  germinated seeds, treated batch compared with the control batch: 10 times
[14]
  plants diseased with Septoria leaf spot: 20%
[15]
  reduction of the volume of foam immediately after stirring: 30%
